Earlier results, collected in patent US20220347157A1, “SUSTAINED RELEASE PHARMACEUTICAL COMPOSITIONS COMPRISING (1R, 5S)-1-(NAPHTHALEN-2-YL)-3-AZABICYCLO[3.1.0]HEXANE” (OTSUKA AMERICA PHARMACEUTICAL, INC., priority 2013, published 2022).

Legend:
[1] = biological target: serotonin reuptake (5-HT) (Homo sapiens, UniProt P31645); conditions: fraction of the potency towards norepinephrine reuptake
dopamine reuptake (DA) = dopamine reuptake (DA) (Homo sapiens, UniProt Q01959); conditions: fraction of the potency towards norepinephrine reuptake
Sequence of dopamine reuptake (DA) (Q01959 whole entry): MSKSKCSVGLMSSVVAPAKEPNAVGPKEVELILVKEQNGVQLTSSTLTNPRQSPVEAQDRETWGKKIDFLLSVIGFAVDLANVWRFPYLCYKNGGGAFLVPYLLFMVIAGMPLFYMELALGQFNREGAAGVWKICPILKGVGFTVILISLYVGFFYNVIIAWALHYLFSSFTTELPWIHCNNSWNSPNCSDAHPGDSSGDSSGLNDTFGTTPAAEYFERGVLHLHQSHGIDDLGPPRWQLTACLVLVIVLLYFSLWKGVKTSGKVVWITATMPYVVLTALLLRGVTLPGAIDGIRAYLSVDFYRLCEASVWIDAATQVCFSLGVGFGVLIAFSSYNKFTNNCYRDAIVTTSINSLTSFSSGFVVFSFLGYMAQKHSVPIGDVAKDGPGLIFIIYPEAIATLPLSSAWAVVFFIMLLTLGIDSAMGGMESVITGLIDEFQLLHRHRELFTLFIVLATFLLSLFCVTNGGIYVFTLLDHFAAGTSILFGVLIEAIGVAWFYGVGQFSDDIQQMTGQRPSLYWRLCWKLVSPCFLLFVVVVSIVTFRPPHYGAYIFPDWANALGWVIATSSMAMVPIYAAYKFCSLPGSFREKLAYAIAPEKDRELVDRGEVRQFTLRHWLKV

Sequence of serotonin reuptake (5-HT) (P31645 whole entry): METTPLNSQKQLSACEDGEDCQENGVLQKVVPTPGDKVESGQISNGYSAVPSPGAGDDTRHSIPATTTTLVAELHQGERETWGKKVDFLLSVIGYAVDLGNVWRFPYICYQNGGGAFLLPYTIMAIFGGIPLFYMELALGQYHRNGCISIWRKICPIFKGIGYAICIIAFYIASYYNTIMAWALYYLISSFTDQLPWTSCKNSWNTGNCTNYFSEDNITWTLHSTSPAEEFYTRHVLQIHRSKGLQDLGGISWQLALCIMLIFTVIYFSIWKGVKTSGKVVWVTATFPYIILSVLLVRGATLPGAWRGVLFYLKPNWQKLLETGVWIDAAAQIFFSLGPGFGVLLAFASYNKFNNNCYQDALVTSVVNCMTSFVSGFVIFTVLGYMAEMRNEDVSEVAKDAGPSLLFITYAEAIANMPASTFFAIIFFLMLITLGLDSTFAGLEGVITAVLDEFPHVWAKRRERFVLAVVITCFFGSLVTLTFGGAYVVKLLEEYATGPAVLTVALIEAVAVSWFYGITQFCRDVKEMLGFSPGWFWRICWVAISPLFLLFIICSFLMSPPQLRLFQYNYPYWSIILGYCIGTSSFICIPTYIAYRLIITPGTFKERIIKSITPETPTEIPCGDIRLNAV

For `c1ccc2cc([C@]34CNC[C@H]3C4)ccc2c1` [(1R,5S)-1-(naphthalen-2-yl)-3-azabicyclo[3.1.0]hexane], the “potency towards serotonin reuptake (5-HT) relative to norepinephrine reuptake (NE)” value [1] is given as “one-fourteenth as much” and the “potency towards dopamine reuptake (DA) relative to norepinephrine reuptake (NE)” value (dopamine reuptake (DA)) is given as “one-sixth as much”.
